# Experiments:
# hematopoietic cells [1] = experiment: VCN determination after 14 days in liquid culture of cells transduced with lentiviral vector; type: cell-based; conditions: 4 μg/mL protamine sulfate in media, 14 days liquid culture
# Protocol: “Vector copy number” or “VCN” refers to the number of copies of vector in a sample divided by the number of cells. Generally the number of copies of vector is determined by quantitative polymerase chain reaction (qPCR) using a probe against the Psi sequence of the integrated provirus, and the number of cells is determined by qPCR using a probe against a human housekeeping gene for which there will be two copies per cell (one per chromosome).
# An illustrative protocol for transduction of hematopoietic cells with lentiviral vectors as performed in the examples that follow is provided in FIG. 1, although in various experiments described in the examples, the transduction media included no TE, a single TE, or various combinations of TEs. Pre-stimulation included culturing the cells on plates coated with 2 ug/cm^2 RetroNectin™ (RN). […]
# (§1) In another experiment, cells were transduced with either 1×10^7 TU/mL or 1×10^8 TU/mL of lentiviral vector in liquid culture in the presence of PGE2, and assayed for VCN determination after 14 days in liquid culture (FIG. 2B). […] A colony forming units (CFUs) assay was performed with transduced cells (FIG. 3A, CFCs=colony-forming cells), and VCN and percent (%) transduction were analyzed in single colonies (FIGS. 3B and 3C). […]
# CD34+ cells = conditions: ex vivo culture of CD34+ cells; Heffner et al. 2018; cited from earlier work
# hematopoietic cells [2] = experiment: CFC/CFU assay: percent transduction analysed in single colonies; type: cell-based
# Protocol: “Transduction efficiency” refers to the percentage of cells transduced with at least one provirus copy. For example if 1×10^6 cells are exposed to a virus and 0.5×10^6 cells are determined to have a least one copy of a virus in their genome, then the transduction efficiency is 50%. An illustrative method for determining transduction efficiency is flow cytometry.
# As used herein, “CFC” refers to colony forming cells. The colony forming cell (CFC) assay is used to study the proliferation and differentiation pattern of hematopoietic progenitors by their ability to form colonies in a semisolid medium. The number and the morphology of the colonies formed by a fixed number of input cells provide preliminary information about the ability of progenitors to differentiate and proliferate. Exemplary assays are provided in Sarma et al. Colony forming cell (CFC) assay for human hematopoietic cells. J Vis Exp. 2010 Dec. 18; (46). […]
# as §1
compound,measurement,setting,value
CCCCC(C)(C)[C@H](O)/C=C/[C@H]1[C@H](O)CC(=O)[C@@H]1C/C=C\CCCC(=O)O,transduction efficiency as determined by VCN/cell,"hematopoietic cells [1]; 1×10^7 or 1×10^8 TU/mL lentiviral vector, FIG. 2B",increased transduction efficiency
same,transduction efficiency as measured by vector copy numbers/cell,"hematopoietic cells [1]; PGE2 10, 30 or 50 μg/mL, 2.5×10^7 or 5×10^7 TU/mL VSVG-pseudotyped GFP LV, FIG. 2A",increase transduction efficiency
same,level of lentiviral transgene delivery,CD34+ cells,increase the level of lentiviral transgene delivery
same,"percent (%) transduction, cells transduced","hematopoietic cells [2]; highest tested concentration of PGE2, single colonies, FIG. 3C",up to 75%
same,"percent (%) transduction, cells transduced","hematopoietic cells [2]; highest tested concentration, Example 2 (poloxamer F108 / LentiBOOST), FIG. 5C",up to 75%

# — US12685751B2, “Methods for gene modification of hematopoietic cells” (Centro de Investigaciones Energéticas, Medioambientales y …, priority 2018, dated 2026)
